Measured values taken from PubChem BioAssay (NCI).
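All cell lines were grown in 96-well plates and treated with compound for 48 hours. GI50 = concentration required for 50% inhibition of growth. Definition used: TGI = concentration required for complete inhibition of growth.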

Experiments:
Assay in all cases: NCI anticancer screen, dose series, 48 h
[1] = test system: NCI/ADR-RES ovarian
[2] = test system: MDA-MB-231 breast
[3] = test system: MDA-MB-435
[4] = test system: OVCAR-5 ovarian
[5] = test system: A549 NSCLC
[6] = test system: HL-60(TB) leukemia
[7] = test system: NCI-H226 lung
[8] = test system: DU-145 prostate
[9] = test system: HCC-2998 colon
[10] = test system: MOLT-4 leukemia
[11] = test system: NCI-H23 lung
[12] = test system: SF-295 CNS
[13] = test system: NCI-H460 lung
[14] = test system: BT-549 breast
[15] = test system: UO-31 renal
[16] = test system: OVCAR-4 ovarian
[17] = test system: IGROV1 ovarian
[18] = test system: 786-0 renal
[19] = test system: SW-620 colon
[20] = test system: A498 renal
[21] = test system: RXF 393 renal
[22] = test system: HT29 colon
[23] = test system: ACHN renal
[24] = test system: HOP-92 NSCLC
[25] = test system: CCRF-CEM leukemia
[26] = test system: CAKI-1 renal
[27] = test system: SK-MEL-5 melanoma
[28] = test system: KM12 colon
[29] = test system: OVCAR-8 ovarian
[30] = test system: K-562 leukemia
[31] = test system: NCI-H522 lung
[32] = test system: SK-MEL-28 melanoma
[33] = test system: SNB-75 CNS
[34] = test system: HOP-62 NSCLC
[35] = test system: PC-3 prostate
[36] = test system: UACC-62 melanoma
[37] = test system: M14 melanoma
[38] = test system: RPMI-8226 leukemia
[39] = test system: SK-MEL-2 melanoma
[40] = test system: T-47D breast
[41] = test system: U251 CNS
[42] = test system: TK-10 renal
[43] = test system: SF-268 CNS
[44] = test system: UACC-257 melanoma
[45] = test system: SF-539 CNS
[46] = test system: SK-OV-3 ovarian
[47] = test system: LOX IMVI melanoma
[48] = test system: SR leukemia
[49] = test system: MALME-3M melanoma
[50] = test system: COLO 205 colon
[51] = test system: MCF7 breast
[52] = test system: HS 578T breast
[53] = test system: SNB-19 CNS
[54] = test system: HCT-15 colon
[55] = test system: EKVX NSCLC
[56] = test system: HCT-116 colon
[57] = test system: SN12C renal

Structure (SMILES): CS(=O)(=O)Nc1cc(-c2ccc3ncc(C#N)c(NCc4ccccc4F)c3c2)cnc1Cl
- GI50 [1]: 1450 nM
- TGI [1]: 29500 nM
- GI50 [2]: 343 nM
- TGI [2]: 3800 nM
- GI50 [3]: 251 nM
- TGI [3]: 10600 nM
- GI50 [4]: 386 nM
- TGI [4]: 9740 nM
- GI50 [5]: 442 nM
- TGI [5]: 4000 nM
- GI50 [6]: 253 nM
- TGI [6]: 6390 nM
- GI50 [7]: 358 nM
- TGI [7]: 18200 nM
- GI50 [8]: 302 nM
- TGI [8]: 12100 nM
- GI50 [9]: 339 nM
- TGI [9]: 8320 nM
- GI50 [10]: 190 nM
- TGI [10]: 2540 nM
- GI50 [11]: 271 nM
- TGI [11]: 12300 nM
- GI50 [12]: 197 nM
- TGI [12]: 1920 nM
- GI50 [13]: 374 nM
- TGI [13]: 11500 nM
- GI50 [14]: 60.9 nM
- TGI [14]: 623 nM
- GI50 [15]: 154 nM
- GI50 [16]: 262 nM
- TGI [16]: 6050 nM
- GI50 [17]: 108 nM
- TGI [17]: 876 nM
- GI50 [18]: 308 nM
- TGI [18]: 9520 nM
- GI50 [19]: 317 nM
- TGI [19]: 10800 nM
- GI50 [20]: 89.6 nM
- TGI [20]: 461 nM
- GI50 [21]: 93.4 nM
- TGI [21]: 925 nM
- GI50 [22]: 324 nM
- TGI [22]: 5490 nM
- GI50 [23]: 436 nM
- TGI [23]: > 52500 nM
- GI50 [24]: 23.8 nM
- TGI [24]: 286 nM
- GI50 [25]: 153 nM
- TGI [25]: 45800 nM
- GI50 [26]: 131 nM
- TGI [26]: 1420 nM
- GI50 [27]: 163 nM
- TGI [27]: 336 nM
- GI50 [28]: 280 nM
- TGI [28]: 3860 nM
- GI50 [29]: 328 nM
- TGI [29]: 12200 nM
- GI50 [30]: 260 nM
- TGI [30]: > 100000 nM
- GI50 [31]: 335 nM
- TGI [31]: 8140 nM
- GI50 [32]: 176 nM
- TGI [32]: 4770 nM
- GI50 [33]: 26.7 nM
- TGI [33]: 370 nM
- GI50 [34]: 220 nM
- TGI [34]: 4710 nM
- GI50 [35]: 231 nM
- TGI [35]: 10000 nM
- GI50 [36]: 118 nM
- TGI [36]: 1270 nM
- GI50 [37]: 243 nM
- TGI [37]: 7010 nM
- GI50 [38]: 189 nM
- TGI [38]: 1290 nM
- GI50 [39]: 91.9 nM
- TGI [39]: 320 nM
- GI50 [40]: 108 nM
- TGI [40]: 5840 nM
- GI50 [41]: 155 nM
- TGI [41]: 4270 nM
- GI50 [42]: 100 nM
- TGI [42]: 976 nM
- GI50 [43]: 163 nM
- TGI [43]: 3670 nM
- GI50 [44]: 244 nM
- TGI [44]: 4940 nM
- GI50 [45]: 190 nM
- TGI [45]: 1840 nM
- GI50 [46]: 232 nM
- TGI [46]: 1400 nM
- GI50 [47]: 191 nM
- TGI [47]: 1010 nM
- GI50 [48]: 123 nM
- TGI [48]: 3200 nM
- GI50 [49]: 71.7 nM
- TGI [49]: 475 nM
- GI50 [50]: 271 nM
- TGI [50]: 1200 nM
- GI50 [51]: 106 nM
- TGI [51]: 11500 nM
- GI50 [52]: 49.8 nM
- TGI [52]: 445 nM
- GI50 [53]: 293 nM
- TGI [53]: 11500 nM
- GI50 [54]: 264 nM
- TGI [54]: 11700 nM
- GI50 [55]: 319 nM
- TGI [55]: 5480 nM
- GI50 [56]: 248 nM
- TGI [56]: 1500 nM
- GI50 [57]: 235 nM
- TGI [57]: > 64000 nM
